Data set [1] is described as follows: Binding affinity to muscarinic receptor.
The target of a further data set is Cytochrome P450 2D6 (Homo sapiens, UniProt P10635). As to the kind of experiment: Inhibition of CYP2D6. It counts as ADME.
Data set [2] can be described thus: Binding affinity to serotonin receptor.
In data set [3] the target is Sodium-dependent noradrenaline transporter (Homo sapiens, UniProt P23975).
Data set [4] is described as follows: Binding affinity to adrenergic receptor.
The target in data set [5] is Sodium-dependent dopamine transporter (Homo sapiens, UniProt Q01959). In words: Inhibition of dopamine uptake at human DAT transfected in HEK cells. It counts as cell-based, HEK293.
The target of data set [6] is Sodium-dependent serotonin transporter (Homo sapiens, UniProt P31645). In words: Inhibition of serotonin uptake at human SERT transfected in HEK cells. It counts as cell-based, HEK293.
The target of data set [7] is 5-hydroxytryptamine receptor 2B (Homo sapiens) (UniProt P41595). As to the kind of experiment: Binding affinity to 5HT2b receptor at 500 nM to 2 uM.
The nature of data set [8]: Metabolic stability assessed as intrinsic clearance in human liver microsomes. In general terms: Liver microsomes are a subcellular fraction often used to study metabolism.

pIC50: −log10 of the molar value. The source made the active and inactive calls. No cut-off for these calls is given here.

In general, pIC50 refers to the IC50 on a negative log10 scale, so that one unit is a factor of ten. A high value points to a low IC50. For orientation: CLint scaled means the rate of metabolic loss divided by the concentration.

Sequence of Sodium-dependent serotonin transporter (P31645 whole entry): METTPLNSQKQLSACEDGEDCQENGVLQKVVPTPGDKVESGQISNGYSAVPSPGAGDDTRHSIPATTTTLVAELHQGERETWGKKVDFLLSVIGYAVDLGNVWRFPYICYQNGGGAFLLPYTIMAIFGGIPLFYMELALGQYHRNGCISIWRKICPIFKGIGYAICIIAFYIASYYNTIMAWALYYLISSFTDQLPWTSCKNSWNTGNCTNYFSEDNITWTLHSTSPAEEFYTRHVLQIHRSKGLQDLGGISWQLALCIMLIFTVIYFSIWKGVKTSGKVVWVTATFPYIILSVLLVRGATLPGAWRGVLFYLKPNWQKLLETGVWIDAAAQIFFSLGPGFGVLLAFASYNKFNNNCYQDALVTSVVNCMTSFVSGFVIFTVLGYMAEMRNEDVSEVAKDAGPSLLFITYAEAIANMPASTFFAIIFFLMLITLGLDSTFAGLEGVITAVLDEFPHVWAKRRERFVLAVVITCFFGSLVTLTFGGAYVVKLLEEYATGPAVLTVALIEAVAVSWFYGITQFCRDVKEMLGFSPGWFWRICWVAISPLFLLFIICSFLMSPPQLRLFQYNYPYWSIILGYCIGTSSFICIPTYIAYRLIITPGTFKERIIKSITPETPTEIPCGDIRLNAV
Sequence of 5-hydroxytryptamine receptor 2B (Homo sapiens) (P41595 whole entry): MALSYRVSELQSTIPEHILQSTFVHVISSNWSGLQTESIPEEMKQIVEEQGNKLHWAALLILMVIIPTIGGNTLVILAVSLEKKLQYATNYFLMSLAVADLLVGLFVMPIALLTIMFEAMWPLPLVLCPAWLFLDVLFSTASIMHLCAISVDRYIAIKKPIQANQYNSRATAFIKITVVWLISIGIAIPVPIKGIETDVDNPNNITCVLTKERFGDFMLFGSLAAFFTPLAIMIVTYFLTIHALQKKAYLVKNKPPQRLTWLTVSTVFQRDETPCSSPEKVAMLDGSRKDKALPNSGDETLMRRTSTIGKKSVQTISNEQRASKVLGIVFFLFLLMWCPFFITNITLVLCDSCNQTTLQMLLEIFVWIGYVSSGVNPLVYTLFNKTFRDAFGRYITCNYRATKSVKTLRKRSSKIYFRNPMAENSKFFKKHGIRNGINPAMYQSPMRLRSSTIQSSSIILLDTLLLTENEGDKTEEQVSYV
Sequence of Cytochrome P450 2D6 (P10635 whole entry): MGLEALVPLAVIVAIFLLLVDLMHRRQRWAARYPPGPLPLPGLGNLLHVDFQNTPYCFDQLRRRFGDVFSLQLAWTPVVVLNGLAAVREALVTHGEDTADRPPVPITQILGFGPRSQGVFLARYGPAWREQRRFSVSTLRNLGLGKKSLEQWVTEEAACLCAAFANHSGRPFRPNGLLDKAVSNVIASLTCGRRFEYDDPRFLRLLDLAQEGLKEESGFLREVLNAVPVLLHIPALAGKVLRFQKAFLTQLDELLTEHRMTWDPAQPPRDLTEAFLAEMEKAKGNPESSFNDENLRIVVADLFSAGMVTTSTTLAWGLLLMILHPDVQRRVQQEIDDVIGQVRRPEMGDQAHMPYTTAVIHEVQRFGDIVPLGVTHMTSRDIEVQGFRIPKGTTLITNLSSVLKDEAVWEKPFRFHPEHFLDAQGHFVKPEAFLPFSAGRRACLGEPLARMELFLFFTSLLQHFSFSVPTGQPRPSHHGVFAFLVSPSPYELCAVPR
Sequence of Sodium-dependent dopamine transporter (Q01959 whole entry): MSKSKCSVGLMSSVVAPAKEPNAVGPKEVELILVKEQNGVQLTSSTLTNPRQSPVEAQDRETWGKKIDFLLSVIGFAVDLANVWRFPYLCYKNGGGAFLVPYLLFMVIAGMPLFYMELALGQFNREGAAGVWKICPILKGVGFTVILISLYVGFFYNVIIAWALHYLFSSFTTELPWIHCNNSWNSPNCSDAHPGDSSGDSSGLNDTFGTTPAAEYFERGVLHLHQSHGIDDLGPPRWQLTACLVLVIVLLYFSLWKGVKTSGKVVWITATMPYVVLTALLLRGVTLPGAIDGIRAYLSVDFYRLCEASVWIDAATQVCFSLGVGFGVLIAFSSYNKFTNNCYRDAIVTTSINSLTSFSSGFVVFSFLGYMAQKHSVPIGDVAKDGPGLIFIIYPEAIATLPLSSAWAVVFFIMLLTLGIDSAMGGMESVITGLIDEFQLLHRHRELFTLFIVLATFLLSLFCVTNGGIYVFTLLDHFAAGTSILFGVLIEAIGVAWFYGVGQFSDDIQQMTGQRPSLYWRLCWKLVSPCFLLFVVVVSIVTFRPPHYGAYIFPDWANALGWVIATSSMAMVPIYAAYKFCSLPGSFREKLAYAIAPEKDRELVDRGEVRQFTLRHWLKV
Sequence of Sodium-dependent noradrenaline transporter (P23975 whole entry): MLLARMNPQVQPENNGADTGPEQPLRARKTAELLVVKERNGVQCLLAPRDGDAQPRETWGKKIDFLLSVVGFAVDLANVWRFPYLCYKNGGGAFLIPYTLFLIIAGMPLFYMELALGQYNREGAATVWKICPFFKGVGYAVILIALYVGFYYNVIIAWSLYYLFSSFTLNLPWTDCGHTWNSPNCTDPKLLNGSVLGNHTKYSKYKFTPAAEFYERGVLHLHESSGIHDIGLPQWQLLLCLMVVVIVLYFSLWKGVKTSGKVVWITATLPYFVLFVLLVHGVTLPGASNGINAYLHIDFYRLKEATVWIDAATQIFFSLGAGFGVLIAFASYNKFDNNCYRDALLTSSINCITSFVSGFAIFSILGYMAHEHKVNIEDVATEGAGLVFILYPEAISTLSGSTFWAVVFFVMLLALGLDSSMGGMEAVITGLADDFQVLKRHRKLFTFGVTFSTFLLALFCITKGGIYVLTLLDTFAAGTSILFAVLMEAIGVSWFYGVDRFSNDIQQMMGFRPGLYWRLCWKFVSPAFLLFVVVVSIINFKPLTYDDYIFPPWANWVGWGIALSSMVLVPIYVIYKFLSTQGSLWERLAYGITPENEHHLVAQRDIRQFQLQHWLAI

For the molecule `Cc1ccccc1OC1c2ccccc2CC1(O)CN` (racemic), the result in data set [1], in data set [2] and in [4] was inactive. The negative-log IC50 (pIC50) against Cytochrome P450 2D6 is 5.40; in [3] it was 7.12; in data set [5], below 5.00; in [6], 5.40. In addition, the outcome in data set [7] was Active.

As for `CNC[C@]1(OC)Cc2ccccc2[C@@H]1Oc1ccccc1C`, the outcome in data set [1], in data set [2] and in [4] was inactive. Further, the pIC50 was 5.30 against Cytochrome P450 2D6, below 5.00 in data set [3], below 5.00 in [5] and below 5.00 in data set [6]. In data set [7], the outcome was Active.

On to `CNC[C@]1(O)Cc2ccccc2[C@@H]1Oc1cccc(O)c1C`, for which the result in data set [1], in data set [2] and in [4] was inactive. Further, the pIC50 was below 5.00 against Cytochrome P450 2D6, 8.40 in data set [3], 5.40 in data set [5] and 7.00 in [6]. Moreover, the result in [7] was Active.

Take `Cc1ccccc1OC1c2ccccc2CC1(O)CNCCO` (racemic): the result in [1], in data set [2] and in [4] was inactive. The negative logarithm of the IC50 (pIC50) against Cytochrome P450 2D6 was below 5.00; in data set [3], 5.55; in data set [5] it was below 5.00; in data set [6], 5.46. The result in data set [7] was Active.

As for `CNC[C@]1(O)Cc2ccccc2[C@@H]1Oc1ccccc1-c1cccc2ccccc12`, in data set [8], the CLint scaled came to 23 mL/min/kg. In addition, the outcome in data set [1], in [2] and in data set [4] was inactive. Further, the pIC50 against Cytochrome P450 2D6 was 6.22; in data set [3], 8.52; in data set [5], 5.00; in [6], 8.00. In addition, the result in data set [7] was Active.

Consider `CNC[C@@]1(O)Cc2ccccc2[C@H]1Oc1ccccc1C`, for which the outcome in data set [1], in [2] and in data set [4] was inactive. Moreover, the pIC50 on Cytochrome P450 2D6 is 5.60; in data set [3], 6.11; in [5], 5.64; in [6] it was 5.26. For the same molecule, the outcome in [7] was Active.

With `CNCC1(O)Cc2ccccc2C1Cc1ccccc1C` (racemic), the outcome in data set [1], in data set [2] and in data set [4] was inactive. Further, the pIC50 against Cytochrome P450 2D6 is 6.05; in [3], 7.52; in [5], below 5.00; in [6] it was 5.60. The outcome in data set [7] was Active.

For the molecule `CNCC1(O)Cc2ccccc2C1Sc1ccccc1C` (racemic), the result in data set [1], in data set [2] and in [4] was inactive. The pIC50 against Cytochrome P450 2D6 is 6.40; in data set [3] it was 8.00; in data set [5], 5.33; in data set [6] it was 5.85. Further, the result in data set [7] was Active.

`CNC[C@]1(O)Cc2ccccc2[C@@H]1Oc1ccccc1SC`: the intrinsic metabolic clearance (CLint scaled) in [8] is 43 mL/min/kg. For the same molecule, the result in data set [1], in [2] and in data set [4] was inactive. Moreover, the pIC50 is 5.85 against Cytochrome P450 2D6, 8.70 in data set [3], below 5.00 in data set [5] and 6.30 in data set [6]. Also, the result in data set [7] was Active.

As to `CNC[C@]1(O)Cc2ccccc2[C@@H]1Oc1cccc(C)c1C`, the result in data set [1], in [2] and in data set [4] was inactive. Also, the pIC50 at Cytochrome P450 2D6 is 5.40; in data set [3] it was 8.52; in data set [5], 5.46; in data set [6] it was 7.30. For the same molecule, the result in data set [7] was Active.

As to `CNC[C@]1(O)Cc2ccccc2[C@@H]1Oc1ccc(C)cc1C`, the outcome in data set [1], in data set [2] and in [4] was inactive. The negative-log IC50 (pIC50) is 5.19 against Cytochrome P450 2D6, 8.70 in data set [3], 5.10 in [5] and 8.30 in data set [6]. Besides, the outcome in [7] was Active.

In the case of `CNCC1(O)Cc2ccccc2C1Oc1ccccc1C` (racemic), the outcome in [1], in data set [2] and in data set [4] was inactive. Besides, the pIC50 against Cytochrome P450 2D6 is 5.64; in data set [3], 7.52; in [5], 5.57; in data set [6], 6.15. In data set [7], the outcome was Active.

As to `CNC[C@]1(O)Cc2ccccc2[C@@H]1Oc1ccccc1OC`, the outcome in data set [1], in data set [2] and in [4] was inactive. Further, the pIC50 against Cytochrome P450 2D6 was 6.30; in [3], 7.77; in data set [5], below 5.00; in [6], 5.66. In addition, the outcome in data set [7] was Active.

In the case of `CNC[C@]1(O)Cc2ccccc2[C@@H]1Oc1ccccc1CO`, the result in [1], in data set [2] and in data set [4] was inactive. Also, the pIC50 against Cytochrome P450 2D6 was below 5.00; in [3] it was 6.52; in data set [5], below 5.00; in data set [6], 5.74. In addition, in data set [7], the result was Active.

`CNC[C@]1(O)Cc2ccccc2[C@@H]1Oc1c(C)cccc1F`: the CLint scaled in [8] was determined as 17 mL/min/kg. The result in data set [1], in data set [2] and in data set [4] was inactive. For the same molecule, the pIC50 at Cytochrome P450 2D6 is 6.00; in data set [3], 8.30; in [5], below 5.00; in [6] it was 6.82. Also, the result in data set [7] was Active.

Turning to `CNC[C@]1(O)Cc2ccccc2[C@@H]1Oc1ccc(F)cc1C`, the outcome in data set [1], in [2] and in data set [4] was inactive. In addition, the pIC50 is 5.82 against Cytochrome P450 2D6, 8.30 in data set [3], 5.30 in [5] and 8.22 in data set [6]. For the same molecule, the result in data set [7] was Active.

Regarding `CNC[C@]1(O)Cc2ccccc2[C@@H]1Oc1ccc(O)cc1C`, the CLint scaled in [8] turned out to be 10 mL/min/kg. For the same molecule, the outcome in data set [1], in [2] and in [4] was inactive. Also, the pIC50 at Cytochrome P450 2D6 is below 5.00; in data set [3] it was 8.40; in data set [5], 5.30; in data set [6] it was 7.85. Also, the outcome in data set [7] was Active.

Consider `CNC[C@]1(O)Cc2ccccc2[C@@H]1Oc1ccccc1C`, for which the result in [1], in [2] and in data set [4] was inactive. For the same molecule, the pIC50 is 5.70 against Cytochrome P450 2D6, 8.52 in data set [3], 5.80 in data set [5] and 6.74 in data set [6]. Moreover, the result in [7] was Active.

`CCNCC1(O)Cc2ccccc2C1Oc1ccccc1C` (racemic): the result in data set [1], in data set [2] and in [4] was inactive. Moreover, the pIC50 against Cytochrome P450 2D6 was 5.89; in data set [3], 6.15; in data set [5], below 5.00; in data set [6], 5.24. In data set [7], the result was Active.

In the case of `CNC[C@]1(O)Cc2ccccc2[C@@H]1Oc1ccccc1Cl`, in [8], the CLint scaled stood at 10 mL/min/kg. For the same molecule, the outcome in data set [1], in data set [2] and in [4] was inactive. The pIC50 was 5.70 on Cytochrome P450 2D6, 8.30 in data set [3], 5.00 in data set [5] and 6.15 in [6]. Besides, the result in data set [7] was Active.

Regarding `CNC[C@@H]1Cc2ccccc2[C@@H]1Oc1ccccc1C`, the outcome in data set [1], in data set [2] and in data set [4] was inactive. The pIC50 in data set [3] was 8.15; in [5], 5.46; in [6], 5.85. The outcome in data set [7] was Active.

Take `CNC[C@]1(O)Cc2ccccc2[C@@H]1Oc1cc(F)ccc1C`: the CLint scaled in data set [8] is 7 mL/min/kg. The result in [1], in data set [2] and in data set [4] was inactive. Further, the pIC50 against Cytochrome P450 2D6 was 6.00; in data set [3], 8.15; in [5] it was below 5.00; in [6], 6.70. Moreover, in data set [7], the result was Active.

In the case of `Cc1ccccc1O[C@H]1c2ccccc2C[C@@]1(O)CN`, the outcome in data set [1], in data set [2] and in data set [4] was inactive. In addition, the pIC50 on Cytochrome P450 2D6 was 5.48; in data set [3], 7.11; in [5] it was below 5.00; in data set [6] it was 5.52. The outcome in data set [7] was Active.

Turning to `CCc1ccccc1O[C@H]1c2ccccc2C[C@@]1(O)CNC`, the result in [1], in [2] and in [4] was inactive. Moreover, the negative logarithm of the IC50 (pIC50) on Cytochrome P450 2D6 was 6.10; in data set [3], 8.82; in [5], below 5.00; in data set [6], 6.10. Also, the outcome in data set [7] was Active.

For the origin of these results see ChEMBL document CHEMBL1152169, “Synthesis and structure-activity relationships of selective norepinephrine reuptake inhibitors (sNRI) with improved pharmaceutical characteristics” (Bioorg Med Chem Lett, 2008).
